Columns and labels:
apoE-I3 mRNA = assay: qRT-PCR of apoE-I3 in hippocampus and cortex of kainic acid-treated mice; assay type: in vivo, mouse; settings: human apoE knock-in mice, n=3
Procedure: ApoE-I3 and apoE mRNA levels in different samples were determined in duplicate by quantitative fluorogenic reverse transcription-PCR (qRT-PCR) using GAPDH mRNA as an internal control. RT reactions were performed with Superscript First-strand Synthesis System Kits (Invitrogen, Carlsbad, Calif.) as described earlier. qRT-PCR reactions consisted of 10 μl of diluted cDNA reaction mixture (equivalent to 4.0 ng of RNA template), 12.5 μl of SYBR Green PCR master mix (Applied Biosystems), and 300 nM of each forward and backward primer in a final volume of 25 μl. Serial dilution of pooled cDNA samples from all cells or tissues were used to generate standard curves to determine the relative levels of specific mRNAs in individual samples. The apoE-I3 mRNA levels were then calculated and normalized to the internal GAPDH mRNA standards.
(§1) Kainic acid injections. Kainic acid crosses the blood-brain barrier and induces excitotoxic CNS injury, particularly in the hippocampus and neocortex. Wildtype and human apoE3 or apoE4 knock-in mice at 4-6 months of age were injected intraperitoneally with kainic acid (Sigma) dissolved in saline (0.9%) at 25 mg/kg body weight in one dose, as described. Within ˜15 min, all mice developed seizures. Seizure activity was assessed as described. […] Mice were killed 1-6 days after the injection of kainic acid.
Preparation of mouse brain tissues. […]

[1] = Kainic acid injection, seizure activity in mice; assay type: in vivo, mouse; settings: 25 mg/kg intraperitoneally, wildtype and human apoE3 or apoE4 knock-in mice, all mice
Procedure: as §1

SMILES: C=C(C)[C@H]1CN[C@H](C(=O)O)[C@H]1CC(=O)O [kainic acid, Kainic acid]
- increase of apoE-I3 expression (qRT-PCR) (apoE-I3 mRNA; cortex): not in the cortex
- increase of apoE-I3 expression (qRT-PCR) (apoE-I3 mRNA; hippocampus): twofold
- time from injection to seizures [1]: ≤ 15 min

Reference: patent US7771967B2, “Nucleic acid encoding apolipoprotein E-I3” (The J. David Gladstone Institutes, priority 2006, dated 2010)
